What was measured:
[1] = Laundering stability and extractability of the marker in xylene solution (GC against un-laundered reference); type: physicochemical; details: 8 hours; for marker: relative to control = 100
Procedure: (§1) The stability and extractability of the markers was performed using xylene solutions containing between 100-1000 ppm makers and an equivalent amount of squalene internal reference standard using the following protocols:
Mix 95 parts marked xylenes with 5 parts laundering agent in a 100 mL vial. Mix gently for 8 hours using a magnetic stir bar. Stop mixing and remove a xylene solution aliquot. Analyze by GC and compare marker response to reference (un-laundered) sample.
(§2) Laundering Agents: • 1) 5% sulfuric acid • 2) 98% sulfuric acid • 3) 5% NaOH solution • 4) 50% NaOH solution • 5) Activated charcoal (use 98 parts xylenes solution to 2 parts charcoal) • 6) 5% bleach To test for metal adsorptivity, 100 mL marked xylene tests solution is treated with 5 grams metal shavings at room temperature for 8 hours. GC analysis is again used to determine any loss of marker to the metal surface.

[2] = Metal adsorptivity of the marker from xylene solution (GC); type: physicochemical; details: Metals: 5 grams metal shavings per 100 mL, room temperature, 8 hours
Procedure: as §1, §2

% change ([1]; 2% charcoal (activated)): −6%
marker ([1]; 2% charcoal (activated)): 94
% change ([1]; 5% H2SO4 laundering): −1.75%
marker ([1]; 5% H2SO4 laundering): 98.25
% change ([1]; 5% NaOH laundering): −2.79%
marker ([1]; 5% NaOH laundering): 102.79
% change ([1]; 5% bleach laundering): −65%
marker ([1]; 5% bleach laundering): 35
% change ([1]; 50% NaOH laundering): −1.74%
marker ([1]; 50% NaOH laundering): 98.26
% change ([1]; 98% H2SO4 laundering): 0.47%
marker ([1]; 98% H2SO4 laundering): 100.47
% change [2]: +4%
marker ([2]; relative to control = 100): 104
SMILES: Cc1ccc(C)c(Cc2ccc(-c3ccc(Cc4cc(C)ccc4C)cc3)cc2)c1 [4,4′-bis(2,5-dimethylbenzyl)-1,1′-biphenyl]
